Measured values as given in PubChem BioAssay AID248 (DTP/NCI, 2004).
Values joined by “and” are separate entries in the source; they are usually repeats but may differ in a detail not shown here. Identical values can stand only once. Toxic doses and inconclusive results are not listed. No stated cut-off is given here; in the data, active means T/C of 150% or more; inactive means T/C below 125%.

Tested on: L1210 leukemia ip in BDF1 mice, survival T/C
Test: NCI In Vivo Anticancer Drug Screen. Data for tumor model L1210 Leukemia (intraperitoneal) in B6D2F1 (BDF1) mice
Conditions: endpoint: mean survival time, higher = longer survival
Summary of the method: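 Transplantable tumor model; survival measured in treated vs vehicle control mice. Value = treated/control.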

[1] = dose: 100.0 mg/kg/injection, schedule: Q01DX009 (ip), vehicle: Klucel (hydroxypropylcellulose) (HPC)
[2] = dose: 200.0 mg/kg/injection, schedule: Q01DX009 (ip), vehicle: Klucel (hydroxypropylcellulose) (HPC)
[3] = dose: 400.0 mg/kg/injection, schedule: Q01DX009 (ip), vehicle: Klucel (hydroxypropylcellulose) (HPC)
[4] = dose: 25.0 mg/kg/injection, schedule: Q01DX009 (ip), vehicle: Klucel (hydroxypropylcellulose) (HPC)
[5] = dose: 50.0 mg/kg/injection, schedule: Q01DX009 (ip), vehicle: Klucel (hydroxypropylcellulose) (HPC)
[6] = dose: 100.0 mg/kg/injection, schedule: Q01DX009 (ip), vehicle: saline with Tween-80
[7] = dose: 100.0 mg/kg/injection, schedule: Q04DX003 (ip), vehicle: saline with Tween-80
[8] = dose: 200.0 mg/kg/injection, schedule: Q01DX009 (ip), vehicle: saline with Tween-80
[9] = dose: 200.0 mg/kg/injection, schedule: Q04DX003 (ip), vehicle: saline with Tween-80
[10] = dose: 400.0 mg/kg/injection, schedule: Q01DX009 (ip), vehicle: saline with Tween-80
[11] = dose: 400.0 mg/kg/injection, schedule: Q04DX003 (ip), vehicle: saline with Tween-80
[12] = dose: 100.0 mg/kg/injection, schedule: Q01DX001 (ip), vehicle: saline
[13] = dose: 200.0 mg/kg/injection, schedule: Q01DX001 (ip), vehicle: saline
[14] = dose: 400.0 mg/kg/injection, schedule: Q01DX001 (ip), vehicle: saline
[15] = dose: 100.0 mg/kg/injection, schedule: Q01DX001 (ip), vehicle: saline with Tween-80
[16] = dose: 100.0 mg/kg/injection, schedule: Q04DX002 (ip), vehicle: saline with Tween-80
[17] = dose: 100.0 mg/kg/injection, schedule: Q04DX003 (ip), vehicle: saline
[18] = dose: 200.0 mg/kg/injection, schedule: Q01DX001 (ip), vehicle: saline with Tween-80
[19] = dose: 200.0 mg/kg/injection, schedule: Q04DX002 (ip), vehicle: saline with Tween-80
[20] = dose: 200.0 mg/kg/injection, schedule: Q04DX003 (ip), vehicle: saline
[21] = dose: 400.0 mg/kg/injection, schedule: Q01DX001 (ip), vehicle: saline with Tween-80
[22] = dose: 400.0 mg/kg/injection, schedule: Q04DX002 (ip), vehicle: saline with Tween-80
[23] = dose: 400.0 mg/kg/injection, schedule: Q04DX003 (ip), vehicle: saline
[24] = dose: 50.0 mg/kg/injection, schedule: Q01DX009 (ip), vehicle: saline with Tween-80
[25] = dose: 25.0 mg/kg/injection, schedule: Q01DX009 (ip), vehicle: saline with Tween-80

Measured: T/C

O=C(Nc1cccc2ccccc12)c1ccccc1F
inactive: [1] 95 % of control | [2] 92 % of control | [3] 104 % of control

O=C1C=CC(=Nc2cc(Cl)c(O)c(Cl)c2)C(Cl)=C1
inactive: dose: 12.5 mg/kg/injection, schedule: Q01DX009 (ip), vehicle: Klucel (hydroxypropylcellulose) (HPC) 96 % of control | [4] 96 % of control | [5] 92 % of control

Cn1nc(NC(=O)C(F)(F)F)c2ncc(-c3ccc(Cl)cc3)nc21
inactive: [6] 102 % of control | [7] 100 % of control | [8] 97 % of control | [9] 87 % of control | [10] 97 % of control | [11] 96 % of control

CCCc1c(CC)c(Cl)nc2ccccc12
inactive: [12] 105 % of control | [13] 103 % of control | [14] 91 % of control

Cc1ccc(Cl)cc1NC(=O)Nc1ccccc1C(N)=O
inactive: [15] 98 % of control | [6] 100 % of control and 110 % of control | [16] 93 % of control and 102 % of control | [17] 97 % of control | [18] 92 % of control | [8] 109 % of control and 120 % of control | [19] 93 % of control and 98 % of control | [20] 95 % of control | [21] 101 % of control | [10] 105 % of control and 89 % of control | [22] 95 % of control and 102 % of control | [23] 103 % of control

O=c1c2ccccc2c2c3c1cccc3c1cccc3c(=O)c4ccccc4c2c31
inactive: [7] 98 % of control | [9] 101 % of control | [11] 104 % of control

CC(C)(C)C=O
inactive: [17] 102 % of control | [20] 96 % of control | [23] 100 % of control

O=c1oc(-c2ccccc2Cl)nc2cc(Cl)ccc12
inactive: [24] 96 % of control | [6] 100 % of control

COc1c(OC)c2c3c(c(-c4c(C)cc5c(C(C)C)c(OC)c(OC)c6c5c4OC6OC)c(C)cc3c1C(C)C)OC2OC (configuration not stated)
inactive: [1] 102 % of control | [2] 102 % of control | [3] 107 % of control

C/C(=C(/SS/C(C(=O)O)=C(/C)c1cccc(O)c1)C(=O)O)c1cccc(O)c1
inactive: [12] 97 % of control | [13] 97 % of control | [14] 97 % of control

O=C(C[n+]1ccc2ccccc2c1)c1ccc2ccccc2c1
inactive: dose: 6.25 mg/kg/injection, schedule: Q01DX009 (ip), vehicle: saline with Tween-80 95 % of control | dose: 12.5 mg/kg/injection, schedule: Q01DX009 (ip), vehicle: saline with Tween-80 87 % of control | [25] 90 % of control

C[N+](C)(C)C.Cl[Br-]Br
inactive: dose: 6.25 mg/kg/injection, schedule: Q01DX009 (ip), vehicle: alcohol 95 % of control | dose: 12.5 mg/kg/injection, schedule: Q01DX009 (ip), vehicle: alcohol 89 % of control

COc1ccc(CN(CCO)S(C)(=O)=O)cc1
inactive: [17] 91 % of control | dose: 200.0 mg/kg/injection, schedule: Q01DX009 (ip), vehicle: saline 96 % of control | [20] 96 % of control | dose: 400.0 mg/kg/injection, schedule: Q01DX009 (ip), vehicle: saline 88 % of control | [23] 100 % of control

O=c1[nH]cc(Nc2ccccc2)c(=O)[nH]1
inactive: dose: 100.0 mg/kg/injection, schedule: Q04DX003 (ip), vehicle: Klucel (hydroxypropylcellulose) (HPC) 95 % of control | dose: 200.0 mg/kg/injection, schedule: Q04DX003 (ip), vehicle: Klucel (hydroxypropylcellulose) (HPC) 92 % of control | dose: 400.0 mg/kg/injection, schedule: Q04DX003 (ip), vehicle: Klucel (hydroxypropylcellulose) (HPC) 88 % of control

CCOP(=O)(CCO)OCC
inactive: dose: 50.0 mg/kg/injection, schedule: Q01DX005 (ip), vehicle: saline 106 % of control | dose: 100.0 mg/kg/injection, schedule: Q01DX005 (ip), vehicle: saline 106 % of control | dose: 200.0 mg/kg/injection, schedule: Q01DX005 (ip), vehicle: saline 95 % of control | dose: 400.0 mg/kg/injection, schedule: Q01DX005 (ip), vehicle: saline 104 % of control

O=c1ccc2ccccc2[nH]1.[Mn]
inactive: dose: 5.0 mg/kg/injection, schedule: Q01DX001 (ip), vehicle: carboxymethylcellulose (CMC) 95 % of control | dose: 10.0 mg/kg/injection, schedule: Q01DX001 (ip), vehicle: carboxymethylcellulose (CMC) 95 % of control | dose: 20.0 mg/kg/injection, schedule: Q01DX001 (ip), vehicle: carboxymethylcellulose (CMC) 97 % of control | dose: 40.0 mg/kg/injection, schedule: Q01DX001 (ip), vehicle: carboxymethylcellulose (CMC) 97 % of control

O=C(O)c1cc(Cl)ccn1
inactive: [4] 98 % of control | [5] 102 % of control | [1] 101 % of control and 107 % of control

C/C=C/C(=O)Nc1ccc(CC)cc1
inactive: [1] 95 % of control | [2] 92 % of control

COC(=O)CCCCCN1C(=O)c2cccc([N+](=O)[O-])c2C1=O
inactive: [15] 104 % of control | [18] 97 % of control | [21] 100 % of control

CC(C)CC(NS(=O)(=O)Cc1ccccc1)C(=O)O (configuration not stated)
inactive: dose: 100.0 mg/kg/injection, schedule: Q01DX001 (ip), vehicle: other 105 % of control | dose: 200.0 mg/kg/injection, schedule: Q01DX001 (ip), vehicle: other 107 % of control | dose: 400.0 mg/kg/injection, schedule: Q01DX001 (ip), vehicle: other 96 % of control

COc1cc(Oc2c(OC)cc(/C(C)=N/O)cc2OC)cc(OC)c1OC
inactive: [7] 105 % of control | [9] 92 % of control | [11] 95 % of control

FC(F)(F)C1=N/C(=C2\N=C(C(F)(F)F)N=C2Cl)C(Cl)=N1
inactive: [25] 94 % of control | [24] 96 % of control

CCc1cc(C)cc(OC(=O)Nc2cc(Cl)ccc2OC)c1
inactive: [15] 104 % of control | [6] 95 % of control | [16] 94 % of control and 95 % of control | [18] 93 % of control | [8] 93 % of control | [19] 95 % of control and 90 % of control | [21] 95 % of control | [10] 119 % of control | [22] 95 % of control and 86 % of control
